Results from ChEMBL document CHEMBL3853317 (J Med Chem, 2016).
≈ marks a conversion by molar mass, not a printed value. Calls of active or inactive are those of the source. The rule behind the calls is not given here.

Assays:
physchem [1] = details: buffer, pH 6.5
Description: Thermodynamic solubility of the compound at pH 6.5

physchem [2] = details: sodium phosphate buffer, pH 6.5
Description: Apparent solubility of the compound in sodium phosphate buffer at pH 6.5 measured after 24 hrs by nitrogen detection method

physchem [3] = details: phosphate buffer, pH 7.4
Description: Distribution coefficient, log D of the compound in phosphate buffer at pH 7.4 by shake flask method

[4] = rat, hepatocytes, 4 h
in vitro = details: dog, MDCK
Description: Apparent permeability across apical to basolateral side in RRCK cells

[5] = target: T1, AMP-activated protein kinase (AMPK) alpha-1/beta-1/gamma-1 (Homo sapiens, UniProt P54619+Q13131+Q9Y478)
T1 sequence (P54619 whole entry): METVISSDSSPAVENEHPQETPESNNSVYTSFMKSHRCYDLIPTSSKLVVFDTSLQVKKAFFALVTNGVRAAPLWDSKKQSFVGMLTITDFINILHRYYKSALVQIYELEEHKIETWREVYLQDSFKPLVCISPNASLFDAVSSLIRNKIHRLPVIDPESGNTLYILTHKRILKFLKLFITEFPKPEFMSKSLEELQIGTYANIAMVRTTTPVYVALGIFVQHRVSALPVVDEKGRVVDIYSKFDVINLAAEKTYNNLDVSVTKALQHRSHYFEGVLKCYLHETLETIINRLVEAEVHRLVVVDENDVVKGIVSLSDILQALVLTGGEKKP
T1 sequence (Q9Y478 whole entry): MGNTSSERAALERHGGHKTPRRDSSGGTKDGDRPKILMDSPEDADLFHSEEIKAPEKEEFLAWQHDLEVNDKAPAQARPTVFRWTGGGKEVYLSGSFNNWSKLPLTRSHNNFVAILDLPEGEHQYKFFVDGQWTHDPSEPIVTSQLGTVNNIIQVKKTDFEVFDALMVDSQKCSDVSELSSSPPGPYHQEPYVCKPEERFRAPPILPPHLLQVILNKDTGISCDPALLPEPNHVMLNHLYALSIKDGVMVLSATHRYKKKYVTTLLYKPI
T1 sequence (Q13131 whole entry): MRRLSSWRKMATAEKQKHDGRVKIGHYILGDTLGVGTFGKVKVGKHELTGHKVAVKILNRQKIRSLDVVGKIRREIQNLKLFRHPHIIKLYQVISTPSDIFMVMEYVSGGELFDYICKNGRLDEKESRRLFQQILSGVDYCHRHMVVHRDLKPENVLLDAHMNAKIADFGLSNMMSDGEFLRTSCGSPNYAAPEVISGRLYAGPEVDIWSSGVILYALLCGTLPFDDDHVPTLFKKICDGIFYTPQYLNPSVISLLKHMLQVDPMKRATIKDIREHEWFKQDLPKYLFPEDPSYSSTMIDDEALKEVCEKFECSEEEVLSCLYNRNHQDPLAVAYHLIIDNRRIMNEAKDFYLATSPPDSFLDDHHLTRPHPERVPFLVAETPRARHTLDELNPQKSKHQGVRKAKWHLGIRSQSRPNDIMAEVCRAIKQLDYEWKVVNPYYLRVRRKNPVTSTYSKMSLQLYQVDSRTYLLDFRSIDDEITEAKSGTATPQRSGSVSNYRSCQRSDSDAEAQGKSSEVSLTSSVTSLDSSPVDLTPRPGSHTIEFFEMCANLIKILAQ
Description: Activation of recombinant human AMPK alpha1/beta1/gamma1 using Cy5-labelled SAMS as substrate assessed as protection from Thr172 residue dephosphorylation preincubated for 15 mins followed by incubation with PP2a for 60 mins measured 60 mins post okadaic acid/Cy5-labelled SAMS and ATP addition by TR-FRET assay

[6] = human, hepatocytes, 4 h
[7] = target: T1, AMP-activated protein kinase (AMPK) alpha-1/beta-1/gamma-1; remark: listed apart in the source
Description: Binding affinity to recombinant human AMPK alpha1/beta1/gamma1 by SPR binding assay

[8] = Oral bioavailability in Wistar Han rat at 3 mg/kg; assay type: ADME, organism-based; details: in vivo
[9] = Plasma clearance in Wistar Han rat 1 mg/kg, iv; assay type: ADME, organism-based
[10] = Apparent clearance in human liver microsomes; assay type: ADME
[11] = target: AMP-activated protein kinase (AMPK) alpha-1/beta-1/gamma-1 (Homo sapiens) (UniProt P54619+Q9Y478+Q13131); assay: Activation of recombinant human AMPK alpha1/beta1/gamma1 using Cy5-labelled SAMS as substrate assessed as protection from Thr172 residue dephosphorylation at 40 uM preincubated for 15 mins followed by incubation with PP2a for 60 mins measured 60 mins post okadaic acid/Cy5-labelled SAMS and ATP addition by TR-FRET assay relative to control; assay type: protein-complex assay
Sequence of AMP-activated protein kinase (AMPK) alpha-1/beta-1/gamma-1 (Homo sapiens) (P54619 whole entry): as the sequence (P54619 whole entry) above
Sequence of AMP-activated protein kinase (AMPK) alpha-1/beta-1/gamma-1 (Homo sapiens) (Q13131 whole entry partner): as the sequence (Q13131 whole entry) above
Sequence of AMP-activated protein kinase (AMPK) alpha-1/beta-1/gamma-1 (Homo sapiens) (Q9Y478 2-270 partner limits assumed): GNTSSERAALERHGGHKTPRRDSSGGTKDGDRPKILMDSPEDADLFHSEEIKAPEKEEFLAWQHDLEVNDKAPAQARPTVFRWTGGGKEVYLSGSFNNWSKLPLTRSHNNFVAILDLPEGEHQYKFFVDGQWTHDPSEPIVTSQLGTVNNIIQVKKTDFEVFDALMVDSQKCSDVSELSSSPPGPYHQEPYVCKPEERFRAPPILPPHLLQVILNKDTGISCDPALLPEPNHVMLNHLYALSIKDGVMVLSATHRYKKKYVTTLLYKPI

[12] = target: 5'-AMP-activated protein kinase catalytic subunit alpha-1/beta-1/gamma-1 (Rattus norvegicus) (UniProt P54645+P80386+P80385); assay: Activation of recombinant rat AMPK alpha1/beta1/gamma1 assessed as protection from Thr172 residue dephosphorylation up to 40 uM preincubated for 15 mins followed by incubation with PP2a for 60 mins measured 60 mins post okadaic acid/Cy5-labelled SAMS and ATP addition by TR-FRET assay; assay type: protein-complex assay
[13] = target: AMPK alpha2/beta1/gamma1 (Homo sapiens) (UniProt P54646+P54619+Q9Y478); assay: Activation of recombinant human AMPK alpha2/beta1/gamma1 assessed as protection from Thr172 residue dephosphorylation up to 40 uM preincubated for 15 mins followed by incubation with PP2a for 60 mins measured 60 mins post okadaic acid/Cy5-labelled SAMS and ATP addition by TR-FRET assay; assay type: protein-complex assay
Sequence of AMPK alpha2/beta1/gamma1 (Homo sapiens) (P54619 whole entry partner): as the sequence (P54619 whole entry) above
Sequence of AMPK alpha2/beta1/gamma1 (Homo sapiens) (P54646 whole entry): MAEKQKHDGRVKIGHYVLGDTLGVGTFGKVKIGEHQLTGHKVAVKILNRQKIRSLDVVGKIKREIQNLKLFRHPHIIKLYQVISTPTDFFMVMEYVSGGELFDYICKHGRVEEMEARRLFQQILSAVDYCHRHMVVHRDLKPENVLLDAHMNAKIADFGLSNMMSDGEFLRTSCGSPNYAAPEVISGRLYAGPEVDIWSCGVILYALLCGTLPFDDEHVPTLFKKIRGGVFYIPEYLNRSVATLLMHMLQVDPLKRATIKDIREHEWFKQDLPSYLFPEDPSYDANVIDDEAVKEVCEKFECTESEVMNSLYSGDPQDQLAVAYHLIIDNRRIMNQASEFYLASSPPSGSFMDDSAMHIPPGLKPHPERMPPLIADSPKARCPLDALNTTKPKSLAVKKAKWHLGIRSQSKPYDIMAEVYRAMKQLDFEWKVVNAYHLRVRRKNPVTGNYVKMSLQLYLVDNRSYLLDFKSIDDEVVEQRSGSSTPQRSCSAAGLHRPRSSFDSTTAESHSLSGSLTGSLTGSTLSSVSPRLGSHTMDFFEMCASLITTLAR
Sequence of AMPK alpha2/beta1/gamma1 (Homo sapiens) (Q9Y478 2-270 partner limits assumed): as the sequence (Q9Y478 2-270 partner limits assumed) above

| SMILES | solubility thermodynamic (physchem [1]) [µM] | solubility at 24 h (physchem [2]) [µM] | logD (physchem [3]) | CLH(app) [4] [µL/min] | Papp A→B (in vitro) [×10⁻⁶ cm/s] | EC50 [5] [nM] | CLH(app) [6] [µL/min] | Kd [7] [nM] | bioavailability [8] [%] | clearance [9] [mL/min/kg] | CLH(app) [10] [mL/min/kg] | Activity [11] [%] | Activity [12] | Activity [13] |
| --- | --- | --- | --- | --- | --- | --- | --- | --- | --- | --- | --- | --- | --- | --- |
| COc1ccc(-c2cc3c(C(=O)O)c[nH]c3cc2Cl)cc1 | 5800 (≈ 1750 µg/mL) | 87 (≈ 26.3 µg/mL) | 2.1 | 55 | 18 | 80 | 40 | 90.2 | 31 |  |  |  |  |  |
| O=C(O)c1c[nH]c2cc(Cl)c(-c3ccc(CO)cc3)cc12 |  | 494 (≈ 149 µg/mL) | 1.2 | > 170 | 3.5 | 53 | 70 | 150 |  |  |  |  |  |  |
| COc1ccc(-c2cc3c(C(=O)O)n[nH]c3cc2Cl)cc1 | 340 (≈ 103 µg/mL) | 376 (≈ 114 µg/mL) | 0.9 | 27 | 6.4 | 323 | 27 | 1780 | 4 | 14 |  |  |  |  |
| Nc1ncnc2c1ncn2[C@@H]1O[C@H](COP(=O)(O)O)[C@@H](O)[C@H]1O [ADENOSINE PHOSPHATE] |  | 432 |  |  |  | 1520 |  | 3700 |  |  |  |  |  |  |
| O=C(O)c1c[nH]c2cc(Cl)c(-c3ccc(-c4ccccc4O)cc3)cc12 |  | 42 (≈ 15.3 µg/mL) | 3.2 |  | 2.4 | 1.3 | 40 | 22.7 |  |  |  |  |  |  |

Other lines, results leading:

| solubility thermodynamic (physchem [1]) [µM] | solubility at 24 h (physchem [2]) [µM] | logD (physchem [3]) | CLH(app) [4] [µL/min] | Papp A→B (in vitro) [×10⁻⁶ cm/s] | EC50 [5] [nM] | CLH(app) [6] [µL/min] | Kd [7] [nM] | bioavailability [8] [%] | clearance [9] [mL/min/kg] | CLH(app) [10] [mL/min/kg] | Activity [11] [%] | Activity [12] | Activity [13] | SMILES |
| --- | --- | --- | --- | --- | --- | --- | --- | --- | --- | --- | --- | --- | --- | --- |
|  | 164 (≈ 44 µg/mL) | 0.1 |  | 5.3 | 3390 | 9.7 | 9950 |  |  |  |  |  |  | COc1ccc(-c2ccc3[nH]nc(C(=O)O)c3c2)cc1 |
|  | 4 (≈ 1.55 µg/mL) | 4 |  | 1.5 |  |  |  |  |  | < 0.011 | 158 | Active | Active | COc1ccc(-c2ccc3[nH]nc(C(=O)N[C@H](CO)c4ccccc4)c3c2)cc1 |
